Experimental findings from ChEMBL document CHEMBL3817766, “Application of the Huisgen cycloaddition and 'click' reaction toward various 1,2,3-triazoles as HIV non-nucleoside reverse transcriptase inhibitors” (Bioorg Med Chem Lett, 2016) are described below.

What is called IC50 is the point on the concentration scale where inhibition reaches its midpoint. One may read the CC50 as the concentration giving 50% cytotoxicity.

Series [1] in a line: Inhibition of HIV reverse transcriptase transfected in HEK293T cells assessed as reduction in viral replication measured at 48 hrs postinfection by luciferase reporter based single-cycle non replicative phenotypic assay. Format: cell-based. The following applies: Human immunodeficiency virus 1, HEK-293T. Background: In a reporter assay the amount or activity of a reporter protein is the signal.

The nature of series [2]: Cytotoxicity against mouse EL4.3 cells assessed as reduction in cell viability by MTT assay. Format: cell-based. For orientation: Tetrazolium assays rely on reduction of a dye to a coloured formazan, in cell work by metabolically active cells.

As for `N#Cc1cccc(Cn2cc(CCO)nn2)c1`, the IC50 in series [1] (read-out: IC50) is greater than 83.5 µM. The CC50 in series [2] was greater than 100 µM.

Regarding `CCc1nn(CCO)nc1C(OC)c1cc(Cl)cc(Cl)c1` (stereo not drawn), in series [1] (read-out: IC50), the IC50 was found to be 14.1 µM. The CC50 in series [2] was found to be 95.1 µM.

As for `CCc1nn(CC)nc1C(OC)c1cc(Cl)cc(Cl)c1` (stereo not drawn), the IC50 in series [1] (read-out: IC50) was greater than 49 µM. The 50% cytotoxic concentration (CC50) in series [2] is 89 µM.

Regarding `CCc1nn(CCO)nc1Cc1cc(C)cc(C)c1`, in series [1] (read-out: IC50), the IC50 was greater than 100 µM. For the same compound, the CC50 in series [2] is greater than 100 µM.

In the case of `CCc1nn(CCO)nc1Cc1cccc(C#N)c1`, the 50% inhibitory concentration (IC50) in series [1] (read-out: IC50) was greater than 100 µM. Besides, in series [2], the CC50 is greater than 100 µM.

As for `CCc1c(CCO)nnn1Cc1cc(Cl)cc(Cl)c1`, the IC50 in series [1] (read-out: IC50) was 45.2 µM. The 50% cytotoxic concentration (CC50) in series [2] is greater than 100 µM.

For the compound `OCc1cn(Cc2cc(C(F)(F)F)cc(C(F)(F)F)c2)nn1`, the IC50 in series [1] (read-out: IC50) is greater than 24.5 µM. Also, the CC50 in series [2] was greater than 53.4 µM.

Turning to `CCc1nnn(Cc2cc(C)cc(C)c2)c1CCO`, the IC50 in series [1] (read-out: IC50) was greater than 100 µM. Further, the CC50 in series [2] is greater than 100 µM.

As to `CCc1c(CCO)nnn1Cc1ccccc1`, the IC50 in series [1] (read-out: IC50) is greater than 100 µM. Besides, the 50% cytotoxic concentration (CC50) in series [2] was greater than 100 µM.

With `CCc1nnn(Cc2cccc(C#N)c2)c1CCO`, in series [1] (read-out: IC50), the IC50 is greater than 100 µM. The half-maximal cytotoxic concentration (CC50) in series [2] is greater than 100 µM.

Regarding `CCc1c(CCO)nnn1Cc1cccc(C#N)c1`, the IC50 in series [1] (read-out: IC50) was greater than 100 µM. In addition, in series [2], the CC50 was greater than 100 µM.

Consider `Cc1cc(C)cc(Cn2cc(CO)nn2)c1`, for which the IC50 in series [1] (read-out: IC50) was 27.8 µM. Moreover, the 50% cytotoxic concentration (CC50) in series [2] was greater than 100 µM.

For `CCc1nnn(Cc2ccccc2)c1CCO`, the IC50 in series [1] (read-out: IC50) was greater than 100 µM. Moreover, the CC50 in series [2] is greater than 100 µM.

Consider `CCc1nnn(Cc2cc(Cl)cc(Cl)c2)c1CCO`, for which the IC50 in series [1] (read-out: IC50) is 72.6 µM. Besides, in series [2], the CC50 was greater than 100 µM.

Turning to `CCc1nn(CCO)nc1Cc1cc(Cl)cc(Cl)c1`, the IC50 in series [1] (read-out: IC50) came out at 23.8 µM. In addition, the CC50 in series [2] is 84.7 µM.

As to `OCc1cn(Cc2ccccc2)nn1`, the IC50 in series [1] (read-out: IC50) is greater than 83.5 µM. Further, in series [2], the CC50 was greater than 100 µM.

For the compound `Cc1ccnc2c1NC(=O)c1cccnc1N2C1CC1` [NEVIRAPINE], the IC50 in series [1] amounted to 0.091 µM.
